Test results: US20230295201A1 (Gilead Sciences, Inc., priority 2020, published 2023)
Read-outs that look alike come from different tables or passages of the source.

Legend:
Type in all cases: cell-based
HRV16 = HRV16 HELA EC50 (cytopathic effect in H1-HeLa cells)
Procedure, shortened: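 Read-out is luminescent cell viability (CellTiter-Glo) after 96 h of infection at 33 °C, scaled between uninfected and infected-untreated wells. Before infection with titrated virus, compounds went onto H1-HeLa cells as triplicate 3-fold dilution series.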

DENV2 replicon = assay: DENV-2 Huh-7 Rep EC50 (replicon luminescence); details: read-out: DENV-2 Huh-7 Rep EC50
Procedure, shortened: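 EC50 derived from luminescence dose-response, normalised to DMSO-only 0% inhibition wells, after 1.5 h with EnduRen substrate. Compounds were first exposed for 48 h at 37° C to DENV2 replicon Huh-7 cells (5,000/well).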

RSV A2 = assay: RSV NHBE EC50 (RSV A2 antiviral assay in normal human bronchial epithelial cells); details: NHBE cells, RSV A2, 4 days, read-out: RSV NHBE EC50
RSV strain A2 = assay: RSV HEp-2 EC50 (infectious cytopathic cell protection assay); details: HEp-2 cells, RSV A2, 4 days, read-out: RSV HEp-2 EC50
Procedure, shortened: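 Percent inhibition of RSV-induced cytopathic effect came from remaining cell viability (CellTiter-Glo luminescence) after 4 days at 37° C. Compounds in 3-fold serial dilutions were exposed to an infectious mix of titered A2 virus and HEp-2 cells at 50,000/ml, with 0% and 100% inhibition control standards.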

[1] = 96 h, H1-HeLa cells, 33° C., read-out: HRV16 HELA EC50
[2] = Dengue virus, DENV2, Huh-7, 48 h, Huh-7 replicon cells, 48 hours
[3] = human respiratory syncytial virus, NHBE, 96 h
[4] = human respiratory syncytial virus, HEp-2, 96 h
[5] = H1-HeLa cells, 96 h, 33° C.; read-out: HRV16 HELA EC50
[6] = Dengue virus, DENV2, Huh-7, 48 h
[7] = human respiratory syncytial virus, 96 h

| Compound | EC50 (HRV16; [1]) | EC50 (DENV2 replicon; [2]) | EC50 (RSV A2; [3]) | EC50 (RSV strain A2; [4]) | EC50 (HRV16; [5]) | EC50 (DENV2 replicon; Huh-7 replicon cells, 48 hours) | EC50 (RSV A2) | EC50 (RSV strain A2) | EC50 (DENV2 replicon; [6]) | EC50 (RSV A2; [7]) | EC50 (RSV strain A2; [7]) |
| --- | --- | --- | --- | --- | --- | --- | --- | --- | --- | --- | --- |
| CCOC(=O)[C@H](C)N[P@](=O)(OC[C@@]1(C#N)O[C@@H](c2ccc3c(N)ncnn23)[C@H](O)[C@@H]1O)Oc1ccccc1 [Example 29, Ethyl ((S)-(((2R,3S,4R,5S)-5-(4-aminopyrrolo[2,1-f][1,2,4]triazin-7-yl)-2-cyano-3,4-dihydroxytetrahydrofuran-2-yl)methoxy)(phenoxy)phosphoryl)-L-alaninate] | 678 nM | 36.1 µM | 932 nM | 91 nM |  |  |  |  |  |  |  |
| COC(=O)[C@H](C)N[P@](=O)(OC[C@@]1(C#N)O[C@@H](c2ccc3c(N)ncnn23)[C@H](O)[C@@H]1O)Oc1ccccc1 [Example 52, methyl ((S)-(((2R,3S,4R,5S)-5-(4-aminopyrrolo[2,1-f][1,2,4]triazin-7-yl)-2-cyano-3,4-dihydroxytetrahydrofuran-2-yl)methoxy)(phenoxy)phosphoryl)-L-alaninate] | 1250 nM | > 47 µM | 252 nM | 94 nM |  |  |  |  |  |  |  |
| CCC(CC)COC(=O)[C@@H](C)NP(=O)(OC[C@@]1(C#N)O[C@@H](c2ccc3c(N)ncnn23)[C@H](O)[C@@H]1O)Oc1ccccc1 (stereo partly drawn) [Example 82, (2R)-2-ethylbutyl 2-(((((2R,3S,4R,5S)-5-(4-aminopyrrolo[2,1-f][1,2,4]triazin-7-yl)-2-cyano-3,4-dihydroxytetrahydrofuran-2-yl)methoxy)(phenoxy)phosphoryl)amino)propanoate] | 9270 nM | > 50 µM | 3000 nM | 2510 nM |  |  |  |  |  |  |  |
| C[C@H](N[P@](=O)(OC[C@@]1(C#N)O[C@@H](c2ccc3c(N)ncnn23)[C@H](O)[C@@H]1O)Oc1ccccc1)C(=O)OCC(C)(C)C [Example 94] |  |  |  |  | 209 nM | 2.34 µM | 118 nM | 100 nM |  |  |  |
| CCCCCCCCCCCCCCCCCCOC[C@H](COP(=O)(O)OC[C@@]1(C#N)O[C@@H](c2ccc3c(N)ncnn23)[C@H](O)[C@@H]1O)OCc1ccccc1 [Example 96, ((2R,3S,4R,5S)-5-(4-aminopyrrolo[2,1-f][1,2,4]triazin-7-yl)-2-cyano-3,4-dihydroxytetrahydrofuran-2-yl)methyl ((R)-2-(benzyloxy)-3-(octadecyloxy)propyl) hydrogen phosphate] |  |  |  |  | 9350 nM |  |  |  | > 100 µM | 441 nM | 254 nM |
| CCC(CC)OC(=O)[C@H](C)NP(=O)(OC[C@@]1(C#N)O[C@@H](c2ccc3c(N)ncnn23)[C@H](O)[C@@H]1O)Oc1ccccc1 (stereo partly drawn) [Example 101, (2S)-pentan-3-yl 2-(((((2R,3S,4R,5S)-5-(4-aminopyrrolo[2,1-f][1,2,4]triazin-7-yl)-2-cyano-3,4-dihydroxytetrahydrofuran-2-yl)methoxy)(phenoxy)phosphoryl)amino)propanoate] | 3130 nM | > 100 µM | 1240 nM | 1740 nM |  |  |  |  |  |  |  |
| CCCCCCCCCCCCCCCCOCCCOP(=O)(O)OC[C@@]1(C#N)O[C@@H](c2ccc3c(N)ncnn23)[C@H](O)[C@@H]1O [Example 149, ((2R,3S,4R,5S)-5-(4-aminopyrrolo[2,1-f][1,2,4]triazin-7-yl)-2-cyano-3,4-dihydroxytetrahydrofuran-2-yl)methyl (3-(hexadecyloxy)propyl) hydrogen phosphate] |  |  |  |  | > 50000 nM |  |  |  | > 50 µM | > 891 nM | 925 nM |
| CCCCCCCCCCCCOC(=O)[C@H](C)NP(=O)(OC[C@@]1(C#N)O[C@@H](c2ccc3c(N)ncnn23)[C@H](O)[C@@H]1O)Oc1ccccc1 (stereo partly drawn) [Example 191, dodecyl ((((2R,3S,4R,5S)-5-(4-aminopyrrolo[2,1-f][1,2,4]triazin-7-yl)-2-cyano-3,4-dihydroxytetrahydrofuran-2-yl)methoxy)(phenoxy)phosphoryl)-L-alaninate] | 3400 nM | 61.3 µM | 35 nM | 2380 nM |  |  |  |  |  |  |  |
| CCCCCCOC(=O)[C@H](C)NP(=O)(OC[C@@]1(C#N)O[C@@H](c2ccc3c(N)ncnn23)[C@H](O)[C@@H]1O)Oc1ccccc1 (stereo partly drawn) [Example 192, hexyl ((((2R,3S,4R,5S)-5-(4-aminopyrrolo[2,1-f][1,2,4]triazin-7-yl)-2-cyano-3,4-dihydroxytetrahydrofuran-2-yl)methoxy)(phenoxy)phosphoryl)-L-alaninate] | 342 nM | 15.9 µM | 21 nM | 194 nM |  |  |  |  |  |  |  |
| C[C@H](NP(=O)(OC[C@@]1(C#N)O[C@@H](c2ccc3c(N)ncnn23)[C@H](O)[C@@H]1O)Oc1cccc2ccccc12)C(=O)OC1CCCCC1 (stereo partly drawn) [Example 203, cyclohexyl ((((2R,3S,4R,5S)-5-(4-aminopyrrolo[2,1-f][1,2,4]triazin-7-yl)-2-cyano-3,4-dihydroxytetrahydrofuran-2-yl)methoxy)(naphthalen-1-yloxy)phosphoryl)-L-alaninate] | 72 nM | 4.46 µM | 18 nM | 31 nM |  |  |  |  |  |  |  |
